Measured values: patent publication US20240081328A1, “Use of 4-Nitro-3-(Trifluoromethyl)Phenol in Killing or Controlling Pomacea Canaliculata, Method for Killing or Controlling Pomacea Canaliculata, and Molluscicide” (priority 2021, published 2024)
Where two headings read alike, the source gives them in different places.

System: Pomacea canaliculata
Test: Immersion test of dilutions in beakers, mortality rate of Pomacea canaliculata
Format: in vivo
Conditions: for mortality at 0.0039 µg/mL / mortality at 0.0078 µg/mL / mortality at 0.0156 µg/mL / mortality at 0.0312 µg/mL / mortality at 0.0625 µg/mL / mortality at 0.125 µg/mL / mortality at 0.25 µg/mL / mortality at 0.5 µg/mL: Pomacea canaliculata, read-out: Mortality rate (%) of Pomacea canaliculata at different action time (h); for mortality at 0.0039 µg/mL: 0.0039 mg/L; for mortality at 0.0078 µg/mL: 0.0078 mg/L; for mortality at 0.0156 µg/mL: 0.0156 mg/L; for mortality at 0.0312 µg/mL: 0.0312 mg/L; for mortality at 0.125 µg/mL: 0.125 mg/L; for mortality at 0.25 µg/mL: 0.25 mg/L; for mortality at 0.5 µg/mL: 0.5 mg/L
Procedure: 0.5 mg of 4-nitro-3-(trifluoromethyl)phenol and 0.5 mg of niclosamide were completely dissolved in 1 mL of a dimethyl sulfoxide (DMSO) solution separately, and diluted to 1,000 mL with deaminized water to obtain a 4-nitro-3-(trifluoromethyl)phenol solution with a concentration of 0.5 mg/L and a niclosamide solution with a concentration of 0.5 mg/L.
The two solutions were separately diluted into 7 concentrations of dilutions using a doubling dilution method, including 0.25 mg/L, 0.125 mg/L, 0.0625 mg/L, 0.0312 mg/L, 0.0156 mg/L, and 0.0078 mg/L, and 0.0039 mg/L.
400 mL of the dilutions with different concentrations were separately poured into a 500 mL beaker, 10 Pomacea canaliculata samples were put into the dilution of each concentration, and each bottle mouth was sealed with wire mesh to completely immerse the Pomacea canaliculata in the dilution; clear water was used as a control group.
The experimental data were used to calculate the mortality rate of each treatment according to the following formula. Each calculation result was rounded to two decimal places. A formula for calculating the mortality rate was: […]
In the formula: P represented the mortality rate, in percentage (%); Σ^Ki represented • the number of dead Pomacea canaliculata, in snails; Σ^Ni represented the total number of treated Pomacea canaliculata, in snails.

O=[N+]([O-])c1ccc(O)cc1C(F)(F)F [4-nitro-3-(trifluoromethyl)phenol]
comparable to that of the niclosamide: Pomacea canaliculata killing activity / control effect compared with niclosamide (overall conclusion from Tables 2 and 3)
40%: mortality at 0.0078 µg/mL (action time 24 h)
100%: mortality at 0.0078 µg/mL (action time 36 h) | mortality at 0.0078 µg/mL (action time 48 h) | mortality at 0.0078 µg/mL (action time 60 h) | mortality at 0.0078 µg/mL (action time 72 h) | mortality at 0.0156 µg/mL (action time 24 h) | mortality at 0.0156 µg/mL (action time 36 h) | mortality at 0.0156 µg/mL (action time 48 h) | mortality at 0.0156 µg/mL (action time 60 h) | mortality at 0.0156 µg/mL (action time 72 h) | mortality at 0.0312 µg/mL (action time 24 h) | mortality at 0.0312 µg/mL (action time 36 h) | mortality at 0.0312 µg/mL (action time 48 h) | mortality at 0.0312 µg/mL (action time 60 h) | mortality at 0.0312 µg/mL (action time 72 h) | mortality at 0.0625 µg/mL (0.0625 mg/L, action time 24 h) | mortality at 0.0625 µg/mL (0.0625 mg/L, action time 36 h) | mortality at 0.0625 µg/mL (0.0625 mg/L, action time 48 h) | mortality at 0.0625 µg/mL (0.0625 mg/L, action time 60 h) | mortality at 0.0625 µg/mL (0.0625 mg/L, action time 72 h) | mortality at 0.125 µg/mL (action time 12 h) | mortality at 0.125 µg/mL (action time 24 h) | mortality at 0.125 µg/mL (action time 36 h) | mortality at 0.125 µg/mL (action time 48 h) | mortality at 0.125 µg/mL (action time 60 h) | mortality at 0.125 µg/mL (action time 72 h) | mortality at 0.25 µg/mL (action time 12 h) | mortality at 0.25 µg/mL (action time 24 h) | mortality at 0.25 µg/mL (action time 36 h) | mortality at 0.25 µg/mL (action time 48 h) | mortality at 0.25 µg/mL (action time 60 h) | mortality at 0.25 µg/mL (action time 72 h) | mortality at 0.5 µg/mL (action time 12 h) | mortality at 0.5 µg/mL (action time 24 h) | mortality at 0.5 µg/mL (action time 36 h) | mortality at 0.5 µg/mL (action time 48 h) | mortality at 0.5 µg/mL (action time 60 h) | mortality at 0.5 µg/mL (action time 72 h)
10%: mortality at 0.0156 µg/mL (action time 12 h)
0%: mortality at 0.0039 µg/mL (action time 0 h) | mortality at 0.0039 µg/mL (action time 12 h) | mortality at 0.0078 µg/mL (action time 0 h) | mortality at 0.0078 µg/mL (action time 12 h) | mortality at 0.0156 µg/mL (action time 0 h) | mortality at 0.0312 µg/mL (action time 0 h) | mortality at 0.0625 µg/mL (0.0625 mg/L, action time 0 h) | mortality at 0.125 µg/mL (action time 0 h) | mortality at 0.25 µg/mL (action time 0 h) | mortality at 0.5 µg/mL (action time 0 h)
50%: mortality at 0.0039 µg/mL (action time 36 h) | mortality at 0.0039 µg/mL (action time 48 h) | mortality at 0.0039 µg/mL (action time 60 h)
obvious killing effect: killing effect on the Pomacea canaliculata (in words) (overall conclusion from the examples)
30%: mortality at 0.0312 µg/mL (action time 12 h)
could kill all Pomacea canaliculata: killing of Pomacea canaliculata (in words) (0.0625 mg/L, action time of 24 h)
70%: mortality at 0.0039 µg/mL (action time 72 h) | mortality at 0.0625 µg/mL (0.0625 mg/L, action time 12 h)
20%: mortality at 0.0039 µg/mL (action time 24 h)
